Values of other authors in patent publication US20190298660A1, “PHOSPHATE-CROSSLINKED STARCH NANOPARTICLES AND USE FOR DRUG DELIVERY” (GreenMark Biomedical Inc., priority 2018, published 2019).

COc1cccc2c1C(=O)c1c(O)c3c(c(O)c1C2=O)C[C@@](O)(C(=O)CO)C[C@@H]3O[C@H]1C[C@H](N)[C@H](O)[C@H](C)O1 [doxorubicin]
pKa: 9.53
